Results: patent publication US20260365670A1, “EGFR INHIBITORS AND USES THEREOF” (DIZAL (JIANGSU) PHARMACEUTICAL CO., LTD., priority 2022, published 2026)
Like-named read-outs stand apart in the source and are kept apart here.

Experiments:
A-431 = assay: Cell proliferation GI50, A-431 cells (Table 6); format: cell-based
EGFR (C797S L858R) = target: T1, EGFR (C797S L858R) (Homo sapiens, UniProt P00533, C797S/L858R); assay: Inhibition of EGFR (C797S L858R) biochemical enzymatic activity (HTRF); details: EGFR L858-C797S, 1 mM ATP, 1 h, room temperature, read-out: IC50 (nM) @L858-C797S
T1 construct: purchased signalchem
In short: (§1)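 Phosphorylation of TK Substrate-biotin (1 μM) was measured at 1 mM ATP over a 1 h room-temperature incubation with serially varied compound. Detection was by HTRF ratio and analysis by 4PL fit to IC50.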

EGFR L858R = target: T2, EGFR L858R (Homo sapiens, UniProt P00533, L858R); assay: Inhibition of EGFR L858R biochemical enzymatic activity (HTRF); details: 1 mM ATP, 1 h, room temperature, read-out: IC50 (nM) @L858R
T2 construct: purchased Carna Bio
T2 sequence (P00533 25-1210 L858R): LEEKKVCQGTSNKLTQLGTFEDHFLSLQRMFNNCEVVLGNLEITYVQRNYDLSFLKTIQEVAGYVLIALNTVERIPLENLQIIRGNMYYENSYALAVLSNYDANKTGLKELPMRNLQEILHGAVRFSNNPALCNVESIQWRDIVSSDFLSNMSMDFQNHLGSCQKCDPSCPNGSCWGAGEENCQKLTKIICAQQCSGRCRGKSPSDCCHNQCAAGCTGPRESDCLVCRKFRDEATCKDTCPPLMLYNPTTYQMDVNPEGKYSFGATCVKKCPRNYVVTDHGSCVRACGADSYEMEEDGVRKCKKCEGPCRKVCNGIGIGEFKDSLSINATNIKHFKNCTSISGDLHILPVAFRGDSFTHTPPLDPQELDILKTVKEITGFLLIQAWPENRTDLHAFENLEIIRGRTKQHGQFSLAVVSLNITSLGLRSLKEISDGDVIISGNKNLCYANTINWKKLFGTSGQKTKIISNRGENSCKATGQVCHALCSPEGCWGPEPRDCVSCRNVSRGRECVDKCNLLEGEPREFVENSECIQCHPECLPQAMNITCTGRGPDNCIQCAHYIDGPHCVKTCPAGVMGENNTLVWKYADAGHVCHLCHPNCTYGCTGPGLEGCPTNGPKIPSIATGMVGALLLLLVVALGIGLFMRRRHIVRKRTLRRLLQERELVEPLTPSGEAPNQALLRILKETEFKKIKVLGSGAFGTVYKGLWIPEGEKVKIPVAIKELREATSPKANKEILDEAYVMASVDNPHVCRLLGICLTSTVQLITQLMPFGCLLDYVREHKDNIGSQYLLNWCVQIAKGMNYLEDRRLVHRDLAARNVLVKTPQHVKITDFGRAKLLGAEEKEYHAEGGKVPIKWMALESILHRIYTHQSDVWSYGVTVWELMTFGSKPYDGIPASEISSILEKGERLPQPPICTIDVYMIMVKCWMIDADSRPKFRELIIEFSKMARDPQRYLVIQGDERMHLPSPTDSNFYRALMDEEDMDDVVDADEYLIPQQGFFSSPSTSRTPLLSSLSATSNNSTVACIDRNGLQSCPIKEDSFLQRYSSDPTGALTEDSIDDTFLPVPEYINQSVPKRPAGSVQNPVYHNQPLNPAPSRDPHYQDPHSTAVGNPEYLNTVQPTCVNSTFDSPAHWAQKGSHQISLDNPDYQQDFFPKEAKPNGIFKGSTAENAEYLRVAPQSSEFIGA
In short: as §1

[1] = system: Ba/F3 cells expressing EGFR mutations; assay: Cell proliferation assay, Ba/F3 cells expressing EGFR mutations (CellTiter-Glo, 72 hours); format: cell-based; details: CellTiter-Glo
In short: (§2)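 In RPMI1640 medium (PC-9 with 10% FBS), each cell line was seeded at its own density: Ba/F3 5000 and PC-9 500 per well. A compound series was added the next day, with a time-zero viability plate read in parallel. Percent proliferation was subtracted for G0 and referenced to DMSO, and GI50 was derived by curve fitting.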

EGFR (d746-750 C797S) = target: T3, EGFR (d746-750 C797S) (Homo sapiens, UniProt P00533, C797S/DEL746-750); assay: Inhibition of EGFR (d746-750 C797S) biochemical enzymatic activity (HTRF); details: EGFR Del19-C797S, 1 mM ATP, 1 h, room temperature, read-out: IC50 (nM) @Del19-C797S
T3 construct: purchased signalchem
In short: as §1

EGFR[T790M/C797S/L858R] = target: T4, EGFR[T790M/C797S/L858R] (Homo sapiens, UniProt P00533, C797S/L858R/T790M); assay: Inhibition of EGFR[T790M/C797S/L858R] biochemical enzymatic activity (HTRF); details: EGFR T790M-C797S-L858R, 1 mM ATP, 1 h, room temperature, read-out: IC50 (nM) @T790M- C797S - L858R
T4 construct: purchased Carna Bio
T4 sequence (P00533 25-1210 T790M/C797S/L858R): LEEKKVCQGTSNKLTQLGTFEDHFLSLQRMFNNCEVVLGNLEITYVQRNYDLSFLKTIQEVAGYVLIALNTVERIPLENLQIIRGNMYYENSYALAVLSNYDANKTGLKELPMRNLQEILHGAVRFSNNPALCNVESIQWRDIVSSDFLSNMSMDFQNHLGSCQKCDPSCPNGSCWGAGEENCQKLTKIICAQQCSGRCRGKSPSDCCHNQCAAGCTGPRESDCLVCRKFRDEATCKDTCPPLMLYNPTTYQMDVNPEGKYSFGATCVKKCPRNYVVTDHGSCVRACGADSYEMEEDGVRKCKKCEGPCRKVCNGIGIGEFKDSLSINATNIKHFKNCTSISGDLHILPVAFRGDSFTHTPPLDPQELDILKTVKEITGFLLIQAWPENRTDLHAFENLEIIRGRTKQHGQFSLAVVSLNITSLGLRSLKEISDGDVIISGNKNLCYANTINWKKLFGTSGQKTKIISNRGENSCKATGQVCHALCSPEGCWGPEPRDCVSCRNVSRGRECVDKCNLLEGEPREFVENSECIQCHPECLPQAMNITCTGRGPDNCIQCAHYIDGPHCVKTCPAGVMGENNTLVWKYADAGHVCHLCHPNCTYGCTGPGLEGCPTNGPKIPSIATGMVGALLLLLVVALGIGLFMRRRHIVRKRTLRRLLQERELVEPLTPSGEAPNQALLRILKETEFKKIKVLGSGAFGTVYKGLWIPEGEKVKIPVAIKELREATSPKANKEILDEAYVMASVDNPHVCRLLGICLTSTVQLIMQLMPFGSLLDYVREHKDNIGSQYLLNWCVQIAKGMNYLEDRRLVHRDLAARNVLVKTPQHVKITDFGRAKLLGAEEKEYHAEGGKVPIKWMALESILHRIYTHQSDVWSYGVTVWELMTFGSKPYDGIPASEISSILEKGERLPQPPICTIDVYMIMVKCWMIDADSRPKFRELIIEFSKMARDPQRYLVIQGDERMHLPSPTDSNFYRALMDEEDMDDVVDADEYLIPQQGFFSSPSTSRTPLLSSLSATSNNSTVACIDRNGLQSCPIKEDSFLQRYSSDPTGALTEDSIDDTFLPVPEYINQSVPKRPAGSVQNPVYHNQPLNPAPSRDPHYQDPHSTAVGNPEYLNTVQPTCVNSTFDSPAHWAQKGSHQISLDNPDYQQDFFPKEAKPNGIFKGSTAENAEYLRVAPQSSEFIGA
In short: as §1

[2] = target: T5, EGFR[T790M/C797S/d746-750] (Homo sapiens, UniProt P00533, C797S/DEL746-750/T790M); assay: Inhibition of EGFR[T790M/C797S/d746-750] biochemical enzymatic activity (HTRF); details: EGFR T790M-C797S-Del19, 1 mM ATP, 1 h, room temperature, read-out: IC50 (nM) @T790M - C797S - Del19
T5 construct: purchased Carna Bio
T5 sequence (P00533 with tags, fused parts or gaps DEL746-750/T790M/C797S limits assumed): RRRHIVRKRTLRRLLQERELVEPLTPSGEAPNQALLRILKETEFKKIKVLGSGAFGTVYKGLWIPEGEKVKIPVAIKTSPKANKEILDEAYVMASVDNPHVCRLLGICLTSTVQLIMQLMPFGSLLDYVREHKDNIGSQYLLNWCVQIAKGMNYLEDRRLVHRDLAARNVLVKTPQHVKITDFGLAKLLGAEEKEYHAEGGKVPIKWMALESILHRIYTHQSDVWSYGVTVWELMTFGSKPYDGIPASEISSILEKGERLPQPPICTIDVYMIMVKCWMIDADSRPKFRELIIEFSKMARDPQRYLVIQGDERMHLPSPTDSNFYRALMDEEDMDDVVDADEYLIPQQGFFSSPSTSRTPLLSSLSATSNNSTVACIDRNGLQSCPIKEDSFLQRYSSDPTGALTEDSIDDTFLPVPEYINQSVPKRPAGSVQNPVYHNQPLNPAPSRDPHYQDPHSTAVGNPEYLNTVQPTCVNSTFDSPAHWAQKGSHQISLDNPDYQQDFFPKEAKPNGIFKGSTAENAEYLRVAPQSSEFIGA
In short: as §1

PC-9 = assay: Cell proliferation assay, PC-9 cells (CellTiter-Glo, 72 hours); format: cell-based; details: PC9 cells, CellTiter-Glo, read-out: PC9 GI50
In short: as §2

EGFR L858R/T790M = target: T6, EGFR L858R/T790M (Homo sapiens, UniProt P00533, L858R/T790M); assay: Inhibition of EGFR L858R/T790M biochemical enzymatic activity (HTRF); details: EGFR L858R-T790M, 1 mM ATP, 1 h, room temperature, read-out: IC50 (nM) @L858R-T790M
T6 construct: purchased Carna Bio
In short: as §1

EGFR Exon19Del = target: T7, EGFR Exon19Del (Homo sapiens, UniProt P00533, DEL746-750); assay: Inhibition of EGFR Exon19Del biochemical enzymatic activity (HTRF); details: EGFR Del19, 1 mM ATP, 1 h, room temperature, read-out: IC50 @Del19
T7 construct: purchased Carna Bio
T7 sequence (P00533 with tags, fused parts or gaps DEL746-750 limits assumed): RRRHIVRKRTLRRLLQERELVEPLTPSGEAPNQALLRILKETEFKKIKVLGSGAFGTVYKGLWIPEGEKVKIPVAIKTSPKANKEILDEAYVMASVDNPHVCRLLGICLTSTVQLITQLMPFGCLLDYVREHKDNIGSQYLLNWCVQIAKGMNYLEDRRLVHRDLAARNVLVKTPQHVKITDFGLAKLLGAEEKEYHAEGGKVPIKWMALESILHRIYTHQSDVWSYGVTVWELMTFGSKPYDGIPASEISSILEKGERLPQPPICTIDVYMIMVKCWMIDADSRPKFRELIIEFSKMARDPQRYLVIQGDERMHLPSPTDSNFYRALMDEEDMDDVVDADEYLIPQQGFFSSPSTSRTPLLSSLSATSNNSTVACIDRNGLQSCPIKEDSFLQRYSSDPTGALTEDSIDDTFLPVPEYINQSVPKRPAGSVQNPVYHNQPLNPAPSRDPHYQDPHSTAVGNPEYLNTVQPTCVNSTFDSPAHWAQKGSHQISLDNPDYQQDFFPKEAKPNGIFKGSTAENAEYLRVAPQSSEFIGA
In short: as §1

EGFR Exon19Del/T790M = target: T8, EGFR Exon19Del/T790M (Homo sapiens, UniProt P00533, DEL746-750/T790M); assay: Inhibition of EGFR Exon19Del/T790M biochemical enzymatic activity (HTRF); details: EGFR Del19-T790M, 1 mM ATP, 1 h, room temperature, read-out: IC50 (nM) @Del19-T790M
T8 construct: purchased Carna Bio
In short: as §1

EGFR wild type = target: T9, EGFR wild type (Homo sapiens, UniProt P00533); assay: Inhibition of EGFR wild type biochemical enzymatic activity (HTRF); details: EGFR WT, 1 mM ATP, 1 h, room temperature, read-out: IC50 (nM) @WT
T9 construct: purchased Carna Bio
T9 sequence (P00533 25-1210): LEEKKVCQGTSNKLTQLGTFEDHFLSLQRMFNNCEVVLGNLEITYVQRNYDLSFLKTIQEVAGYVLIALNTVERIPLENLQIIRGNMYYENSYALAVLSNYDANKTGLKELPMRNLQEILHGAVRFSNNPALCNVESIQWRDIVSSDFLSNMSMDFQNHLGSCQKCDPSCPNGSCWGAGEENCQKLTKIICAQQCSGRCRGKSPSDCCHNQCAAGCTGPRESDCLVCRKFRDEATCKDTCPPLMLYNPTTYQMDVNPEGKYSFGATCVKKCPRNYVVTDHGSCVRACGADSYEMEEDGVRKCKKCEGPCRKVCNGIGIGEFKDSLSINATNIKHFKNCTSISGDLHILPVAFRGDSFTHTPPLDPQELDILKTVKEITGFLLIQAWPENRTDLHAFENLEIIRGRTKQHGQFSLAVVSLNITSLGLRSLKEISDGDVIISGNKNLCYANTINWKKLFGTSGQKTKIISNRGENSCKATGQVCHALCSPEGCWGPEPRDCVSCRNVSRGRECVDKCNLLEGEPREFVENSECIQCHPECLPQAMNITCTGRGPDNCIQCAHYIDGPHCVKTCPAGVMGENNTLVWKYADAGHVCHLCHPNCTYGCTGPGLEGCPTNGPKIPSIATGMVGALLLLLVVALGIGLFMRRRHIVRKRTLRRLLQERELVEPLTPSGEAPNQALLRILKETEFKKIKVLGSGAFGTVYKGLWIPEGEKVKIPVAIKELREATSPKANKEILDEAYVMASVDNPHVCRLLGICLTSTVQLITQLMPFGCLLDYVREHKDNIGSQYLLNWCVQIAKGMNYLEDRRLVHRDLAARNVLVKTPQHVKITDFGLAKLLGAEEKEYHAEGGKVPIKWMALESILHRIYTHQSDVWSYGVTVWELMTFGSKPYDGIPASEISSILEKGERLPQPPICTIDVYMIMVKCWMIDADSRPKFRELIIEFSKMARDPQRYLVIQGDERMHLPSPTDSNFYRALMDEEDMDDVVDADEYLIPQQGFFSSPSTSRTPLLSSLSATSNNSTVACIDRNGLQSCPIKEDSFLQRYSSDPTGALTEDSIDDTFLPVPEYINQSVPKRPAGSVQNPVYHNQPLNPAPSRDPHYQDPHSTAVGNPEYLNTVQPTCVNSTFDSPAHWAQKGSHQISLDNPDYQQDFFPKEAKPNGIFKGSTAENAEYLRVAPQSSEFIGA
In short: as §1

[3] = BaF3 cells, EGFR DEL19-C797S, read-out: DEL19-C797S/BaF3 GI50
[4] = BaF3 cells, EGFR DEL19-T790-C797S, read-out: DEL19-T790-C797S/BaF3 GI50
[5] = BaF3 cells, EGFR L858R, read-out: L858R/BaF3 GI50
[6] = BaF3 cells, EGFR L858R-C797S, read-out: L858R-C797S/BaF3 GI50
[7] = BaF3 cells, EGFR L858R-T790-C797S, read-out: L858R-T790-C797S/BaF3 GI50
[8] = BaF3 cells, EGFR L858R-T790M, read-out: L858R-T790M/BaF3 GI50
[9] = EGFR DEL19-T790M, read-out: DEL19-T790M GI50
[10] = Homo sapiens, A-431, A-431 cells
[11] = Mus musculus, BaF3, 72 h, BaF3 cells, EGFR DEL19-C797S, read-out: DEL19-C797S/BaF3 GI50
[12] = Mus musculus, BaF3, 72 h, BaF3 cells, EGFR DEL19-T790-C797S, read-out: DEL19-T790-C797S/BaF3 GI50
[13] = Mus musculus, BaF3, 72 h, BaF3 cells, EGFR L858R, read-out: L858R/BaF3 GI50
[14] = Mus musculus, BaF3, 72 h, BaF3 cells, EGFR L858R-C797S, read-out: L858R-C797S/BaF3 GI50
[15] = Mus musculus, BaF3, 72 h, BaF3 cells, EGFR L858R-T790-C797S, read-out: L858R-T790-C797S/BaF3 GI50
[16] = Mus musculus, BaF3, 72 h, BaF3 cells, EGFR L858R-T790M, read-out: L858R-T790M/BaF3 GI50
[17] = Mus musculus, BaF3, 72 h, EGFR DEL19-T790M, read-out: DEL19-T790M GI50

SMILES	GI50 (A-431; A-431 cells)	IC50 (EGFR (C797S L858R))	IC50 (EGFR L858R)	GI50 [1, 4]	IC50 (EGFR (d746-750 C797S))	IC50 (EGFR[T790M/C797S/L858R])	IC50 [2]	IC50 (EGFR L858R/T790M)	IC50 (EGFR Exon19Del)	IC50 (EGFR Exon19Del/T790M)	IC50 (EGFR wild type)	GI50 (A-431; [10])	GI50 [1, 11]	GI50 [1, 12]	GI50 [1, 13]	GI50 [1, 14]	GI50 [1, 15]	GI50 [1, 16]	GI50 [1, 17]	GI50 (PC-9; Homo sapiens, PC-9, 72 h)	further results
CN1CCC2(CC1)CCN(c1ccc3nc4n(c3c1)C13CCC(CN(CCOc5c(cnn5C)-c5cc(cn(C)c5=O)C(=O)N4)C1)C3)C2 (single isomer, unassigned) [Example A88B]	2200 nM	4.2 nM	4.8 nM	1 nM	2.2 nM	2.8 nM	4.6 nM	4.9 nM	2.5 nM	4.9 nM	12 nM										GI50 [1, 3]: 0.63 nM; GI50 [1, 5]: 0.84 nM; GI50 [1, 6]: 3.4 nM; GI50 [1, 7]: 1.7 nM; GI50 [1, 8]: 8.8 nM; GI50 [1, 9]: 1 nM; GI50 (PC-9): 21 nM
Cn1ncc2c1OCCN1CC3CCC(C3)(C1)n1c(nc3ccc(N4CCC(N5CC(F)C5)C4)cc31)NC(=O)c1cc-2c(=O)n(C)c1 (single isomer, unassigned) [Example A94B, 5-[3-(3-Fluoroazetidin-1-yl)pyrrolidin-1-yl]-15,21-dimethyl-23-oxa-2,9,11,15,20,21,26-heptaazaheptacyclo[24.4.1.1^{1,28}.1^{13,17}.0^{2,10}.0^{3,8}.0^{18,22}]tritriaconta-3,5,7,9,13,17(33),18(22),19-octaene-12,16-dione]	2880 nM	20 nM	29 nM	4.5 nM	6.1 nM	9.5 nM	8.4 nM	11 nM	5.2 nM	11 nM	235 nM										GI50 [1, 5]: 5.1 nM; GI50 [1, 7]: 7.7 nM; GI50 [1, 8]: 14 nM; GI50 [1, 9]: 3.3 nM; GI50 (PC-9): 35 nM
Cn1ncc2c1OCCN1CC3CCC(C3)(C1)n1c(nc3ccccc31)NC(=O)c1cc-2c(=O)n(C)c1 (single isomer, unassigned) [Example A61A, 15,21-Dimethyl-23-oxa-2,9,11,15,20,21,26-heptaazaheptacyclo[24.4.1.1^{1,28}.1^{13,17}.0^{2,10}.0^{3,8}.0^{18,22}]tritriaconta-3,5,7,9,13,17(33),18(22),19-octaene-12,16-dione]		> 5000 nM	> 5000 nM		1660 nM	> 5000 nM	> 5000 nM	> 5000 nM	2180 nM	> 5000 nM	> 5000 nM	5900 nM	521 nM	688 nM	1370 nM	1740 nM	1910 nM	2660 nM	913 nM	1910 nM	
CN1CC2(C1)CN(c1ccc3nc4n(c3c1)C13CCC(CN(CCOc5c(cnn5C)-c5cc(cn(C)c5=O)C(=O)N4)C1)C3)C2 (single isomer, unassigned) [Example A92A]	2100 nM	2790 nM	1150 nM	112 nM	449 nM	> 5000 nM	3960 nM	> 5000 nM	573 nM	> 5000 nM	> 5000 nM										GI50 [1, 3]: 102 nM; GI50 [1, 5]: 113 nM; GI50 [1, 6]: 122 nM; GI50 [1, 7]: 152 nM; GI50 [1, 8]: 310 nM; GI50 [1, 9]: 80 nM; GI50 (PC-9): 522 nM

Second part, led by results:

GI50 (A-431; A-431 cells)	IC50 (EGFR (C797S L858R))	IC50 (EGFR L858R)	GI50 [1, 4]	IC50 (EGFR (d746-750 C797S))	IC50 (EGFR[T790M/C797S/L858R])	IC50 [2]	IC50 (EGFR L858R/T790M)	IC50 (EGFR Exon19Del)	IC50 (EGFR Exon19Del/T790M)	IC50 (EGFR wild type)	GI50 (A-431; [10])	GI50 [1, 11]	GI50 [1, 12]	GI50 [1, 13]	GI50 [1, 14]	GI50 [1, 15]	GI50 [1, 16]	GI50 [1, 17]	GI50 (PC-9; Homo sapiens, PC-9, 72 h)	SMILES	further results
	> 5000 nM	> 5000 nM		628 nM	> 5000 nM	560 nM	> 5000 nM	849 nM	704 nM	> 5000 nM	2870 nM	392 nM	1160 nM	454 nM	764 nM	859 nM	961 nM	747 nM	482 nM	Cn1ncc2c1OCCN(C1COC1)CCn1c(nc3ccccc31)NC(=O)c1cc-2c(=O)n(C)c1 [Example A5, 5,26-Dimethyl-10-(oxetan-3-yl)-7-oxa-4,5,10,13,20,22,26-heptaazapentacyclo[22.3.1.0^{2,6}.0^{13,21}.0^{14,19}]octacosa-1(28),2(6),3,14,16,18,20,24-octaene-23,27-dione]	
	19 nM	26 nM		4.9 nM	22 nM	15 nM	34 nM	9.2 nM	16 nM	220 nM	1750 nM	2 nM	28 nM	29 nM	20 nM	37 nM	20 nM	20 nM	325 nM	C[C@@H]1CCCOc2c(cnn2C)-c2cc(cn(C)c2=O)C(=O)Nc2nc3ccc(N4CC(F)(CN(C)C)C4)cc3n2C1 [Example A58]	
	22 nM	35 nM		5.5 nM	19 nM	16 nM	32 nM	9.1 nM	17 nM	501 nM	436 nM	3.4 nM	11 nM	12 nM	12 nM	10 nM	26 nM	17 nM	52 nM	C[C@@H]1CCCOc2c(cnn2C)-c2cc(cn(C)c2=O)C(=O)Nc2nc3ccc(N4CC5(CCN(C)CC5(F)F)C4)cc3n2C1 [Example A56]	
	6.7 nM	8.9 nM		2.5 nM	5.1 nM	4.5 nM	6.8 nM	3 nM	5.4 nM	42 nM	279 nM	0.47 nM	1.8 nM	0.75 nM	2.1 nM	1.6 nM	8.7 nM	2.2 nM	2.5 nM	C[C@@H]1CCCOc2c(cnn2C)-c2cc(cn(C)c2=O)C(=O)Nc2nc3ccc(N4CC5(CCN(C)C5)C4)cc3n2C1 [Example A42]	
